Experimental data: article PMC5735979, “Total Coumarins from Hydrangea paniculata Show Renal Protective Effects in Lipopolysaccharide-Induced Acute Kidney Injury via Anti-inflammatory and Antioxidant Activities” (Frontiers in Pharmacology, 2017)

Columns and labels:
[1] = test system: cationized BSA-induced membranous glomerulitis; set-up: method as in Zhang et al., 2013; settings: ref Zhang et al., 2013; cited from earlier work
[2] = Pharmacokinetics study after single oral dose of HP; format: in vivo, C57BL/6 mice; settings: male, C57BL/6, mouse, in vivo, mice, n = 5
Method: All of the animals were fasted for 12 h before receiving HP and were then allowed to eat for 4 h after administration. The dosing solutions used for the animal studies were prepared by dissolving the required amounts of HP in distilled water. […] The plasma was separated and stored at 2–8°C until analysis. […] Louis, MO, USA) and then mixed with 180 μL of acetonitrile (Merck, Darmstadt, Germany) to precipitate protein. After centrifugation, aliquots (10 μL each) of the supernatant were used for analysis. […] The mobile phase consisted of solvent A [0.1% formic acid (Dikma Technologies, Inc., CA, USA) in water] and solvent B [0.1% formic acid in methanol (Merck)]. The analytes were eluted at a flow rate of 0.2 mL/min, with the following gradient elution: from 0 to 0.6 min, 20% B; linear increase to 95% B in 0.2 min; 95% B for 4 min, decrease to 20% B in 0.2 min; and stabilization at initial conditions for 6 min. The mass spectrometer was set for multiple reaction monitoring and was operated in a positive-ion mode with an electrospray ionization source. Nitrogen was used as the curtain gas and the collision gas. The ion-spray voltage was set at 5,500 V, and the gas temperature at 500°C.

[3] = test system: streptozotocin-induced diabetic nephropathy; set-up: method as in Zhang et al., 2012; settings: ref Zhang et al., 2012; cited from earlier work
[4] = plasma, single oral dose of 50 mg/kg HP

Compound: O=c1ccc2ccc(O[C@@H]3O[C@H](CO)[C@@H](O)[C@H](O)[C@H]3O)cc2o1 [Skimmin, skimmin]
- progression of cationized BSA-induced membranous glomerulitis [1]: could slow the progression
- concentration at 0.08 h ([2]; 0.08 h after single oral dose of 50 mg/kg HP, mean ± SD, read-out: Blood drug concentration): 7.5 ± 2.94 µM
- concentration at 0.25 h ([2]; 0.25 h after single oral dose of 50 mg/kg HP, mean ± SD, read-out: Blood drug concentration): 14.2 ± 3.71 µM
- concentration at 0.5 h ([2]; 0.5 h after single oral dose of 50 mg/kg HP, mean ± SD, read-out: Blood drug concentration): 12.6 ± 2.12 µM
- concentration at 1 h ([2]; 1 h after single oral dose of 50 mg/kg HP, mean ± SD, read-out: Blood drug concentration): 7.41 ± 1.53 µM
- concentration at 1.5 h ([2]; 1.5 h after single oral dose of 50 mg/kg HP, mean ± SD, read-out: Blood drug concentration): 4.44 ± 0.89 µM
- concentration at 2 h ([2]; 2 h after single oral dose of 50 mg/kg HP, mean ± SD, read-out: Blood drug concentration): 3.64 ± 0.94 µM
- concentration at 3 h ([2]; 3 h after single oral dose of 50 mg/kg HP, mean ± SD, read-out: Blood drug concentration): 2.37 ± 3.51 µM
- concentration at 4 h ([2]; 4 h after single oral dose of 50 mg/kg HP, mean ± SD, read-out: Blood drug concentration): 1.16 ± 1.11 µM
- concentration at 8 h ([2]; 8 h after single oral dose of 50 mg/kg HP, mean ± SD, read-out: Blood drug concentration): 0.17 ± 0.22 µM
- concentration at 12 h ([2]; 12 h after single oral dose of 50 mg/kg HP, mean ± SD, read-out: Blood drug concentration): 0.05 ± 0.02 µM
- half-life ([2]; elimination half-life, plasma, single oral dose of 50 mg/kg HP): 1.55 h
- AUC(0-inf) [2, 4]: 23.4 µM·h
- AUC(0-t) [2, 4]: 23.3 µM·h
- Cmax [2, 4]: 14.2 µM
- Tmax [2, 4]: 0.25 h
- MRT last ([2]; plasma, single oral dose of 50 mg/kg HP, read-out: MRT(0−t)): 1.75 h
- MRT inf ([2]; plasma, single oral dose of 50 mg/kg HP, read-out: MRT(0−∞)): 1.81 h
- progression of streptozotocin-induced diabetic nephropathy [3]: could slow the progression
